# Experimental data from patent US20230346827A1 (priority 2020, published 2023).
# System: rats subjected to sTBI
# Assay: sTBI rats, LMW-DS 1, 5, 15 mg/kg s.c. 30 min post-TBI: HPLC of brain free amino acids (Example 4)
# Type: in vivo, rat
# Conditions: for HYS concentration in deproteinized brain homogenate / ILE concentration in deproteinized brain homogenate / LEU concentration in deproteinized brain homogenate / LYS concentration in deproteinized brain homogenate / PHE concentration in deproteinized brain homogenate / TAU concentration in deproteinized brain homogenate / TRP concentration in deproteinized brain homogenate / TYR concentration in deproteinized brain homogenate / VAL concentration in deproteinized brain homogenate: rats 7 days post-sTBI, mean ± S.D. of 12 animals
# [1] = 15 mg/kg repeated, 7 d post-sTBI
# [2] = repeated administration of 15 mg/kg b.w.
# [3] = single administration 1 mg/kg b.w.
# [4] = single administration 5 mg/kg b.w.
# [5] = single administration 15 mg/kg b.w.
substance,measurement,setting,value
sodium salt of dextran sulfate [LMW-DS],GLN,[1],3.88 ± 0.40 nmol/g w.w.
same,GLU,[1],10.78 ± 0.91 nmol/g w.w.
same,GLY,[1],0.78 ± 0.10 nmol/g w.w.
same,L-Cystat,[1],0.44 ± 0.07 nmol/g w.w.
same,MET,[1],0.05 ± 0.01 nmol/g w.w.
same,ORN,[1],0.02 ± 0.01 nmol/g w.w.
same,SAH,[1],0.04 ± 0.04 nmol/g w.w.
same,SER,[1],0.79 ± 0.13 nmol/g w.w.
same,THR,[1],0.77 ± 0.14 nmol/g w.w.
same,ALA,"15 mg/kg, 2 d post-sTBI",0.68 ± 0.07 nmol/g w.w.
same,ARG,"15 mg/kg, 2 d post-sTBI",0.16 ± 0.04 nmol/g w.w.
same,ASN,"15 mg/kg, 2 d post-sTBI",0.17 ± 0.03 nmol/g w.w.
same,ASP,"15 mg/kg, 2 d post-sTBI",3.05 ± 0.42 nmol/g w.w.
same,CITR,"15 mg/kg, 2 d post-sTBI",0.01 ± 0.01 nmol/g w.w.
same,GABA,"15 mg/kg, 2 d post-sTBI",1.58 ± 0.14 µmol/g w.w.
same,GLN,"15 mg/kg, 2 d post-sTBI",4.21 ± 0.51 nmol/g w.w.
same,GLU,"15 mg/kg, 2 d post-sTBI",11.79 ± 0.55 nmol/g w.w.
same,GLY,"15 mg/kg, 2 d post-sTBI",1.18 ± 0.23 nmol/g w.w.
same,HYS,"15 mg/kg, 2 d post-sTBI",0.10 ± 0.01 nmol/g w.w.
same,ILE,"15 mg/kg, 2 d post-sTBI",0.06 ± 0.01 nmol/g w.w.
same,L-Cystat,"15 mg/kg, 2 d post-sTBI",0.41 ± 0.08 nmol/g w.w.
same,LEU,"15 mg/kg, 2 d post-sTBI",0.04 ± 0.01 nmol/g w.w.
same,LYS,"15 mg/kg, 2 d post-sTBI",0.32 ± 0.12 nmol/g w.w.
same,MET,"15 mg/kg, 2 d post-sTBI",0.03 ± 0.01 nmol/g w.w.
same,ORN,"15 mg/kg, 2 d post-sTBI",0.02 ± 0.01 nmol/g w.w.
same,PHE,"15 mg/kg, 2 d post-sTBI",0.06 ± 0.01 nmol/g w.w.
same,SAH,"15 mg/kg, 2 d post-sTBI",0.06 ± 0.02 nmol/g w.w.
same,SER,"15 mg/kg, 2 d post-sTBI",0.76 ± 0.06 nmol/g w.w.
same,TAU,"15 mg/kg, 2 d post-sTBI",4.59 ± 0.43 nmol/g w.w.
same,THR,"15 mg/kg, 2 d post-sTBI",0.61 ± 0.13 nmol/g w.w.
same,TRP,"15 mg/kg, 2 d post-sTBI",0.04 ± 0.01 nmol/g w.w.
same,TYR,"15 mg/kg, 2 d post-sTBI",0.17 ± 0.03 nmol/g w.w.
same,VAL,"15 mg/kg, 2 d post-sTBI",0.06 ± 0.03 nmol/g w.w.
same,ALA,"15 mg/kg, 7 d post-sTBI",0.38 ± 0.04 nmol/g w.w.
same,ARG,"15 mg/kg, 7 d post-sTBI",0.14 ± 0.02 nmol/g w.w.
same,ASN,"15 mg/kg, 7 d post-sTBI",0.10 ± 0.02 nmol/g w.w.
same,ASP,"15 mg/kg, 7 d post-sTBI",2.29 ± 0.37 nmol/g w.w.
same,CITR,"15 mg/kg, 7 d post-sTBI",0.03 ± 0.01 nmol/g w.w.
same,GABA,"15 mg/kg, 7 d post-sTBI",1.43 ± 0.15 µmol/g w.w.
same,GLN,"15 mg/kg, 7 d post-sTBI",3.73 ± 0.38 nmol/g w.w.
same,GLU,"15 mg/kg, 7 d post-sTBI",10.25 ± 0.86 nmol/g w.w.
same,GLY,"15 mg/kg, 7 d post-sTBI",0.78 ± 0.12 nmol/g w.w.
same,L-Cystat,"15 mg/kg, 7 d post-sTBI",0.25 ± 0.04 nmol/g w.w.
same,MET,"15 mg/kg, 7 d post-sTBI",0.04 ± 0.01 nmol/g w.w.
same,ORN,"15 mg/kg, 7 d post-sTBI",0.01 ± 0.01 nmol/g w.w.
same,SAH,"15 mg/kg, 7 d post-sTBI",0.04 ± 0.01 nmol/g w.w.
same,SER,"15 mg/kg, 7 d post-sTBI",0.76 ± 0.12 nmol/g w.w.
same,THR,"15 mg/kg, 7 d post-sTBI",0.72 ± 0.14 nmol/g w.w.
same,HYS concentration in deproteinized brain homogenate,[2],0.06 ± 0.01 nmol/g w.w.
same,ILE concentration in deproteinized brain homogenate,[2],0.03 ± 0.01 nmol/g w.w.
same,LEU concentration in deproteinized brain homogenate,[2],0.04 ± 0.01 nmol/g w.w.
same,LYS concentration in deproteinized brain homogenate,[2],0.23 ± 0.07 nmol/g w.w.
same,PHE concentration in deproteinized brain homogenate,[2],0.05 ± 0.01 nmol/g w.w.
same,TAU concentration in deproteinized brain homogenate,[2],3.47 ± 0.44 nmol/g w.w.
same,TRP concentration in deproteinized brain homogenate,[2],0.03 ± 0.01 nmol/g w.w.
same,TYR concentration in deproteinized brain homogenate,[2],0.14 ± 0.02 nmol/g w.w.
same,VAL concentration in deproteinized brain homogenate,[2],0.07 ± 0.01 nmol/g w.w.
same,HYS concentration in deproteinized brain homogenate,[3],0.06 ± 0.01 nmol/g w.w.
same,ILE concentration in deproteinized brain homogenate,[3],0.04 ± 0.01 nmol/g w.w.
same,LEU concentration in deproteinized brain homogenate,[3],0.05 ± 0.01 nmol/g w.w.
same,LYS concentration in deproteinized brain homogenate,[3],0.19 ± 0.06 nmol/g w.w.
same,PHE concentration in deproteinized brain homogenate,[3],0.05 ± 0.01 nmol/g w.w.
same,TAU concentration in deproteinized brain homogenate,[3],4.02 ± 0.51 nmol/g w.w.
same,TRP concentration in deproteinized brain homogenate,[3],0.01 ± 0.01 nmol/g w.w.
same,TYR concentration in deproteinized brain homogenate,[3],0.13 ± 0.02 nmol/g w.w.
same,VAL concentration in deproteinized brain homogenate,[3],0.08 ± 0.01 nmol/g w.w.
same,HYS concentration in deproteinized brain homogenate,[4],0.06 ± 0.01 nmol/g w.w.
same,ILE concentration in deproteinized brain homogenate,[4],0.05 ± 0.01 nmol/g w.w.
same,LEU concentration in deproteinized brain homogenate,[4],0.05 ± 0.01 nmol/g w.w.
same,LYS concentration in deproteinized brain homogenate,[4],0.21 ± 0.04 nmol/g w.w.
same,PHE concentration in deproteinized brain homogenate,[4],0.06 ± 0.01 nmol/g w.w.
same,TAU concentration in deproteinized brain homogenate,[4],3.51 ± 0.44 nmol/g w.w.
same,TRP concentration in deproteinized brain homogenate,[4],0.02 ± 0.01 nmol/g w.w.
same,TYR concentration in deproteinized brain homogenate,[4],0.13 ± 0.02 nmol/g w.w.
same,VAL concentration in deproteinized brain homogenate,[4],0.08 ± 0.01 nmol/g w.w.
same,HYS concentration in deproteinized brain homogenate,[5],0.06 ± 0.01 nmol/g w.w.
same,ILE concentration in deproteinized brain homogenate,[5],0.07 ± 0.01 nmol/g w.w.
same,LEU concentration in deproteinized brain homogenate,[5],0.07 ± 0.01 nmol/g w.w.
same,LYS concentration in deproteinized brain homogenate,[5],0.21 ± 0.05 nmol/g w.w.
same,PHE concentration in deproteinized brain homogenate,[5],0.07 ± 0.01 nmol/g w.w.
same,TAU concentration in deproteinized brain homogenate,[5],3.38 ± 0.44 nmol/g w.w.
same,TRP concentration in deproteinized brain homogenate,[5],0.03 ± 0.01 nmol/g w.w.
same,TYR concentration in deproteinized brain homogenate,[5],0.14 ± 0.02 nmol/g w.w.
same,VAL concentration in deproteinized brain homogenate,[5],0.10 ± 0.01 nmol/g w.w.
